# Values of other authors, collected in publication PMC10323144, “Garbage in, garbage out: how reliable training data improved a virtual screening approach against SARS-CoV-2 MPro” (Frontiers in Pharmacology, 2023).
# Where a name gives a salt, the structure may show the parent alone.
# System: MPro
# Conditions: compiled from peer-reviewed sources (287 compounds) ref the 18 original articles; cited from earlier work
row,SMILES,Class (MPro activity class)
1,CCc1nc(-c2cccc(C)c2)c(-c2ccnc(NC(=O)c3ccccc3)c2)s1 [TAK-715],"0 (compounds with IC50 > 20 μM, percentage inhibition <80% at 20 µM or 50 μM, or percentage enzyme inhibition <50% at 10 µM were labelled as INACTIVE)"
2,CC/C(=C(\c1ccccc1)c1ccc(OCCN(C)C)cc1)c1ccccc1 [TAMOXIFEN CITRATE],"0 (compounds with IC50 > 20 μM, percentage inhibition <80% at 20 µM or 50 μM, or percentage enzyme inhibition <50% at 10 µM were labelled as INACTIVE)"
3,Nc1nc(N)c2nc(-c3cccc(O)c3)c(-c3cccc(O)c3)nc2n1 [TG100-115],"0 (compounds with IC50 > 20 μM, percentage inhibition <80% at 20 µM or 50 μM, or percentage enzyme inhibition <50% at 10 µM were labelled as INACTIVE)"
4,Cc1ccncc1NC(=O)Cc1cc(Cl)cc(OC2CC(=O)N2)c1 (stereo not shown) [TRY-UNI-2eddb1ff-7],1 (Compounds with IC50 < 10 µM or with a percentage of enzyme inhibition >50% at 10 µM were labelled as ACTIVE)
5,Cc1ccncc1NC(=O)Cc1cccc(Cl)c1 [TRY-UNI-714a760b-6],"0 (compounds with IC50 > 20 μM, percentage inhibition <80% at 20 µM or 50 μM, or percentage enzyme inhibition <50% at 10 µM were labelled as INACTIVE)"
6,Cc1ccncc1NC(=O)Cc1cccc(C#N)c1 [TRY-UNI-714a760b-20],"0 (compounds with IC50 > 20 μM, percentage inhibition <80% at 20 µM or 50 μM, or percentage enzyme inhibition <50% at 10 µM were labelled as INACTIVE)"
7,CCC[C@H](NC(=O)[C@@H]1[C@H]2CCC[C@H]2CN1C(=O)[C@@H](NC(=O)[C@@H](NC(=O)c1cnccn1)C1CCCCC1)C(C)(C)C)C(=O)C(=O)NC1CC1 [Telaprevir],"0 (compounds with IC50 > 20 μM, percentage inhibition <80% at 20 µM or 50 μM, or percentage enzyme inhibition <50% at 10 µM were labelled as INACTIVE)"
8,COc1cnc(-n2cnc(C)n2)c2[nH]cc(C(=O)C(=O)N3CCN(C(=O)c4ccccc4)CC3)c12 [Temsavir],"0 (compounds with IC50 > 20 μM, percentage inhibition <80% at 20 µM or 50 μM, or percentage enzyme inhibition <50% at 10 µM were labelled as INACTIVE)"
9,C[C@H](Cn1cnc2c(N)ncnc21)OCP(=O)(O)O [Tenofovir],"0 (compounds with IC50 > 20 μM, percentage inhibition <80% at 20 µM or 50 μM, or percentage enzyme inhibition <50% at 10 µM were labelled as INACTIVE)"
10,O=c1sn(-c2cccc3ccccc23)c(=O)n1Cc1ccccc1 [Tideglusib],1 (Compounds with IC50 < 10 µM or with a percentage of enzyme inhibition >50% at 10 µM were labelled as ACTIVE)
11,CCC[C@@]1(CCc2ccccc2)CC(O)=C([C@H](CC)c2cccc(NS(=O)(=O)c3ccc(C(F)(F)F)cn3)c2)C(=O)O1 [Tipranavir],"0 (compounds with IC50 > 20 μM, percentage inhibition <80% at 20 µM or 50 μM, or percentage enzyme inhibition <50% at 10 µM were labelled as INACTIVE)"
12,C[C@@H]1CCN(C(=O)CC#N)C[C@@H]1N(C)c1ncnc2[nH]ccc12 [Tofacitinib],"0 (compounds with IC50 > 20 μM, percentage inhibition <80% at 20 µM or 50 μM, or percentage enzyme inhibition <50% at 10 µM were labelled as INACTIVE)"
13,Cn1c(=O)cc(N2CCC[C@@H](N)C2)n(Cc2cc(F)ccc2C#N)c1=O [Trelagliptin],"0 (compounds with IC50 > 20 μM, percentage inhibition <80% at 20 µM or 50 μM, or percentage enzyme inhibition <50% at 10 µM were labelled as INACTIVE)"
14,C[C@]12CC[C@H]3[C@@H](CC[C@@]45O[C@@H]4C(O)=C(C#N)C[C@]35C)[C@@H]1CC[C@@H]2O [Trilostane],"0 (compounds with IC50 > 20 μM, percentage inhibition <80% at 20 µM or 50 μM, or percentage enzyme inhibition <50% at 10 µM were labelled as INACTIVE)"
15,CC(C)CC(NC(=O)OCc1ccccc1)C(=O)NC(CC1CCNC1=O)C(=O)C(=O)NC1CC1 (stereo not shown) [UAWJ246],1 (Compounds with IC50 < 10 µM or with a percentage of enzyme inhibition >50% at 10 µM were labelled as ACTIVE)
16,O=C(NC(Cc1ccccc1)C(=O)NC(CC1CCNC1=O)C(O)S(=O)(=O)O)OCc1ccccc1 (stereo not shown) [UAWJ247],1 (Compounds with IC50 < 10 µM or with a percentage of enzyme inhibition >50% at 10 µM were labelled as ACTIVE)
